Data reported in patent US5994349A, “3-carboalkoxy-2, 3-dihydro-1H-phenothiazin-4[10H]-one derivatives” (priority 1997, dated 1999).
Like-named read-outs stand apart in the source and are kept apart here.

Assays:
[1] = system: pentylenetetrazol seizures; assay: subcutaneous pentylenetetrazol (scMet) test, Phase I, mice ip; type: in vivo, male Carworth Farms No. 1 (CF1) mice; details: Mus musculus, mice ip
Protocol: (§1) Initial evaluations for anticonvulsant activity include phases I, VIA and VIB test procedures. These tests are performed intraperitoneally in male Carworth Farms No. 1 (CF1) mice, weighing 18-25 g (Phase I) or orally in male Sprague-Dawley rats, weighing 100-150 g (Phases VIA and VIB). The evaluation is based on three tests: maximal electroshock (MES), subcutaneous (scMet), and the rotorod test for neurological toxicity (Tox). (a) Anticonvulsant Screening Project, Antiepileptic Drug Development Program, National Institutes of Health, DHEW Publ (NIH)(U.S.) 1978, NIH 78-1093. (b) Porter, R. J.; Cereghino, J. J.; Gladding, G. D.; Hessie, B. J.; Kupferberg, H. J.; Scoville, B.; White, B. G. Antiepileptic drug development program. Cleveland Clin. Q. 1984, 51, 293-305. (c) Krall, R. L.; Penry, J. K.; White, B. G.; Kupferberg, H. J.; Swinyard, E. A. Antiepileptic drug development: II. Anticonvulsant drug screening. Epilepsia 1978, 19, 400-428. In the MES test, maximal electroshock seizures are elicited with a 60- cycle alternating current of 50 mA intensity (5-7 times that necessary to elicit minimal electroshock seizures) delivered via corneal electrodes for 0.2 seconds. A drop of 0.9% saline is placed on the eye prior to application of the electrodes in order to […]. Abolition of the hind limb tonic extension component of the seizure is defined as protection and results are expressed as the number of animals protected/the number of animals tested.
In the sc MET test, eighty-five mg/kg of pentylenetetrazol, which induces seizures in more than 95% of mice, is administered as a 0.5% solution subcutaneously in the posterior midline. The animal is observed for 30 minutes. Failure to observe even a threshold seizure (a single episode of clonic spasms of at least 5 seconds duration) is defined as protection and the results are expressed as the number of animals protected/ the number of animals tested. […]

[2] = system: maximal electroshock seizures; assay: maximal electroshock (MES) test, Phase I, mice ip; type: in vivo, male Carworth Farms No. 1 (CF1) mice; details: for responders at 30 mg/kg / responders at 100 mg/kg / responders at 300 mg/kg / responders at 10 mg/kg: Mus musculus
Protocol: as §1
In phase I, compounds are suspended in 0.5% aqueous methylcellulose and are administered intraperitoneally at three dosage levels (30, 100, and 300 mg/kg) with anticonvulsant activity and motor impairment noted 30 min and 4 h (and in some cases 2 h and 6 h) after administration.

[3] = system: threshold tonic extension electroshock seizures; assay: Threshold Tonic Extension (TTE) test, mice ip; type: in vivo; details: 100 mg/kg
Excerpt: (§2) Piredda, S. G.; Woodhead, J. H.; Swinyard, E. A. Effect of stimulus intensity on the profile of anticonvulsant activity of phenytoin, ethosuximide and valproate. J. Pharmacol. Exp. Ther. 1985, 232, 741-745. The TTE test is a clinically nonselective, electroconvulsive seizure model that identifies compounds that raise seizure threshold as well as those that prevent seizure spread. […] The TTE test is similar to the MES screen but uses a lower level of electrical current. The lower current makes the TTE test more sensitive, but less discriminate than the MES screen. This ability makes the model attractive because it allows for the identification of compounds that may have been omitted by the standard identification screen. […] These TTE active compounds may represent compounds acting by novel mechanisms.
Twenty mice are pretreated with 100 mg/kg of the test compound. […] This stimulation produces a TTE seizure in the animals. For each time interval, results are expressed as a ratio of the number of animals protected over the number of animals tested.

neurotoxicity (rotorod) [4] = assay: rotorod test for neurological toxicity (Tox), Phase I, mice ip; type: in vivo, male Carworth Farms No. 1 (CF1) mice
Protocol: as §1
The rotorod test is used to evaluate neurotoxicity. The animal is placed on a 1 inch diameter knurled plastic rod rotating at 6 rpm. Normal mice can remain on a rod rotating at this speed indefinitely. […]

[5] = system: maximal electroshock seizures; assay: MES confirmation of TTE test, mice ip; type: in vivo; details: 100 mg/kg
Protocol: as §1, §2
Twenty mice are pretreated with 100 mg/kg of the test compound. At several time intervals (15 min, 30 min, 1 h, 2 h and 4 h) post treatment with the test compound, four mice at each time point are challenged with 12.5 mA of electrical current for 0.2 sec via corneal electrodes. This stimulation produces a TTE seizure in the animals. For each time interval, results are expressed as a ratio of the number of animals protected over the number of animals tested.

[6] = rotorod toxicity, oral rat (Phase VIA/VIB); type: in vivo, male Sprague-Dawley rats; details: rat, in vivo, po
Protocol: as §1
(§3) The rotorod test is used to evaluate neurotoxicity. The animal is placed on a 1 inch diameter knurled plastic rod rotating at 6 rpm. Normal mice can remain on a rod rotating at this speed indefinitely.
(§4) To differentiate the results between different rodent species, 4b (X=H), as well as 4a (R=H), 4e (R=Cl), 4f (R=Cl) and 4i (R=CH3) are subsequently evaluated for oral (po) activity in the rat (Phase VIA or VIB).

[7] = system: maximal electroshock seizures; assay: maximal electroshock (MES) test, oral rat (Phase VIA/VIB); type: in vivo, male Sprague-Dawley rats; details: for ED50: MES, Phase VIB
Protocol: as §1, §4

neurotoxicity (rotorod) [8] = assay: rotorod toxicity, oral rat (Phase VIA/VIB); type: in vivo, male Sprague-Dawley rats; details: rat oral, 30 mg/kg
Protocol: as §1, §3, §4

[9] = 0.5 h, 30 min, read-out: scMet 30 min
[10] = 4 h, read-out: MES 4 h (converted)
[11] = 0.5 h, 30 min, read-out: MES 30 min (converted)

Structure (SMILES): CC1CC(=O)C2=C(C1)Nc1ccccc1S2 (centres unmarked) [Compound 4d, 2-Methyl-2,3-dihydro-1H-phenothiazin-4[10H] -one]
- responders at 30 mg/kg [1, 9]: 0%
- responders at 100 mg/kg [1, 9]: 0%
- responders at 300 mg/kg ([1]; 0.5 h, 30 min, read-out: scMet 30 min (converted)): 0%
- responders at 30 mg/kg ([1]; 4 h, read-out: scMet 4 h): 0%
- responders at 100 mg/kg ([1]; 4 h, read-out: scMet 4 h): 0%
- responders at 300 mg/kg ([1]; 4 h, read-out: scMet 4 h (converted)): 0%
- responders at 30 mg/kg ([2]; 4 h, read-out: MES 4 h): 0%
- responders at 100 mg/kg [2, 10]: 0%
- responders at 300 mg/kg [2, 10]: 0%
- responders at 30 mg/kg [2, 11]: 0%
- responders at 100 mg/kg [2, 11]: 0%
- responders at 300 mg/kg [2, 11]: 0%
- phase I activity ([2]; Phase I, in words): inactive
- TTE Result ([3]; 0.25 h): 1/4
- TTE Result (repeat test) ([3]; 0.25 h): 2/4
- TTE Result ([3]; 0.50 h): 3/4
- TTE Result (repeat test) ([3]; 0.50 h): 2/4
- TTE Result ([3]; 1.00 h): 1/4
- TTE Result (repeat test) ([3]; 1.00 h): 0/4
- TTE Result ([3]; 2.00 h): 3/4
- TTE Result (repeat test) ([3]; 2.00 h): 0/4
- TTE Result ([3]; 4.00 h): 0/4
- TTE Result (repeat test) ([3]; 4.00 h): 0/4
- TTE Result (repeat test) ([3]; 6.00 h): 1/4
- Tox 30 min (neurotoxicity (rotorod) [4]; 30 mg/kg): 0/4
- Tox 4 h (neurotoxicity (rotorod) [4]; 30 mg/kg): 0/2
- Tox 30 min (neurotoxicity (rotorod) [4]; 100 mg/kg): 0/8
- Tox 4 h (neurotoxicity (rotorod) [4]; 100 mg/kg): 0/4
- Tox 30 min (neurotoxicity (rotorod) [4]; 300 mg/kg): 0/4
- Tox 4 h (neurotoxicity (rotorod) [4]; 300 mg/kg): 0/2
- MES confirmation ([5]; 0.25 h): 0/4
- MES confirmation (repeat test) ([5]; 0.25 h): 1/4
- MES confirmation ([5]; 0.50 h): 3/4
- MES confirmation (repeat test) ([5]; 0.50 h): 1/4
- MES confirmation ([5]; 1.00 h): 1/4
- MES confirmation ([5]; 2.00 h): 0/4

Structure (SMILES): COC(=O)[C@@H]1C(=O)C=C(Nc2ccc(Cl)cc2)C[C@H]1C (relative stereo) [Compound 1, methyl 4-[(4'-chlorophenyl)-amino]-6-methyl-2-oxo-3-cyclohexene-1-carboxylate, reference compound]
- TD50 [6]: > 380 mg/kg
- responders at 10 mg/kg ([7]; 0.25 h): 75%
- responders at 10 mg/kg ([7]; 1.00 h): 100%
- responders at 10 mg/kg ([7]; 2.00 h): 100%
- responders at 10 mg/kg ([7]; 4.00 h): 75%
- responders at 10 mg/kg ([7]; 0.5 h, 0.50 h): 100%
- ED50 ([7]; first test, read-out: ED50): 5.8 mg/kg
- MES (repeat test) ([7]; repeat test, 0.50 h): 3/4
- MES (repeat test) ([7]; repeat test, 1.00 h): 2/4
- MES (repeat test) ([7]; repeat test, 2.00 h): 1/4

Structure (SMILES): CCOC(=O)[C@@H]1C(=O)C2=C(C[C@H]1C)Nc1ccccc1S2 (relative stereo) [Compound 4b, 3-Carbethoxy-2-methyl-2,3-dihydro-1H-phenothiazin-4[10H] -one]
- responders at 10 mg/kg [1, 9]: 0%
- responders at 30 mg/kg [1, 9]: 0%
- responders at 100 mg/kg [1, 9]: 0%
- responders at 10 mg/kg ([1]; 4 h, read-out: scMet 4 h): 0%
- responders at 30 mg/kg ([1]; 4 h, read-out: scMet 4 h): 0%
- responders at 100 mg/kg ([1]; 4 h, read-out: scMet 4 h): 0%
- responders at 10 mg/kg ([2]; 4 h, read-out: MES 4 h): 0%
- responders at 30 mg/kg ([2]; 4 h, read-out: MES 4 h): 0%
- responders at 100 mg/kg [2, 10]: 0%
- responders at 10 mg/kg ([2]; 0.5 h, 30 min, read-out: MES 30 min): 0%
- responders at 30 mg/kg [2, 11]: 33.3%
- responders at 100 mg/kg [2, 11]: 100%
- TD50 [6]: > 500 mg/kg
- Tox (neurotoxicity (rotorod) [8]; 0.25 h): 0/4
- Tox (neurotoxicity (rotorod) [8]; 0.50 h): 1/2
- Tox (neurotoxicity (rotorod) [8]; 1.00 h): 0/4
- Tox (neurotoxicity (rotorod) [8]; 2.00 h): 0/4
- Tox (neurotoxicity (rotorod) [8]; 4.00 h): 0/4
- responders at 30 mg/kg ([7]; 0.25 h): 75%
- responders at 30 mg/kg ([7]; 1.00 h): 50%
- responders at 30 mg/kg ([7]; 2.00 h): 0%
- responders at 30 mg/kg ([7]; 4.00 h): 100%
- responders at 30 mg/kg ([7]; 0.5 h, 0.50 h): 25%
- ED50 ([7]; repeat test, read-out: ED50 (repeat test)): 47.2 mg/kg
- protective index (TD50/ED50) ([7]; repeat test (ED50 47.2, TD50 >500 mg/kg)): > 10.6
- Tox 30 min (neurotoxicity (rotorod) [4]; 10 mg/kg): 0/4
- Tox 4 h (neurotoxicity (rotorod) [4]; 10 mg/kg): 0/2
- Tox 30 min (neurotoxicity (rotorod) [4]; 30 mg/kg): 0/8
- Tox 4 h (neurotoxicity (rotorod) [4]; 30 mg/kg): 0/4
- Tox 30 min (neurotoxicity (rotorod) [4]; 100 mg/kg): 0/4
- Tox 4 h (neurotoxicity (rotorod) [4]; 100 mg/kg): 0/2
